Where two headings read alike, the source gives them in different places.
How the values were obtained:
HIV-1 = conditions: for HIV-1 p24 production reduced by: PBMC
Experimental: Primary cell experiments were approved by the Ohio State University Institutional Review Board, protocol #2014H0001. Peripheral blood mononuclear cells (PBMC) were isolated from healthy donor by Ficoll-Paque centrifugation, stimulated in complete RPMI 1640 medium (Gibco, Carlsbad, Calif.) containing 10% FBS, 100 μg/mL penicillin/streptomycin and supplemented with 5 μg/mL phytohemaglutinin (PHA; Gibco) for 48 h, and maintained thereafter in complete RPMI medium supplemented with 20U/mL of interleukin-2 (Gibco). PBMCs were seeded in 24-well plate (2×10^5 cells/well) and triplicate wells were treated with 10 or 50 μM C75, HS-106, or with DMSO and subsequently infected with 10 ng/mL p24 equivalents of HIV-1LucR-T2A virus, which is derived from NL4-3 (Edmonds et al., 2010). Cells were washed 24 h post infection. Supernatants were collected 4 days post infection and p24 content analyzed by quantitative ELISA (Zeptometrix).

[1] = system: MMTV-Neu model of HER2+ breast cancer; experiment: Efficacy in MMTV-Neu model of HER2+ breast cancer; assay type: in vivo, mice; conditions: 30 pmol/kg IP biweekly, vehicle 29 days

Experimental for PBMC: Unfixed PBMCs were exposed to drug for 48 hours, and PBMC viability was assessed by flow cytometry using propidium iodine (PI) exclusion (BD Pharmingen) and Annexin V staining (BD Pharmingen). Viable cells are defined as cells that both exclude PI and are Annexin V negative.

For `Cc1sc2ncnc(NC3CCN(Cc4ccccc4)C3)c2c1C` (racemic) [HS-106, N-(1-benzylpyrrolidin-3-yI)-5,6-dimethylthieno[2,3-d]pyrimidin-4-amine], the “effect on PBMC viability” value (PBMC) was “negligible effects on cell viability”, the “HIV-1 p24 production reduced by” value (HIV-1; 10 μM) was 87% and the “HIV-1 p24 production reduced by” value (HIV-1; 50 μM) was 96%. The “reduction of HIV-1 p24 production” value (HIV-1; primary PBMCs, 10 μM) was “approximately 10 fold” and the median survival [1] was 63 days.
